The test system of data set [1] is tumours over-expressing the breast cancer resistance protein [BCRP]. Also on record: method as in PMID 19495753. Particulars: unlike SN38; cited from earlier work.
Data set [2] is described as follows: Single and repeat dose toxicity studies (preclinical). Format: in vivo. Particulars: most sensitive of the two species tested; equals 6 mg/m^2. As to the method:
The starting dose of 1 mg/m^2 was derived from single and repeat dose toxicity studies and represented one sixth of 0.3 mg/kg (6 mg/m^2), a dose tolerated without evidence of serious, irreversible or life-threatening toxicity in the most sensitive of the two species tested. Doses were doubled in subsequent cohorts until grade ≥2 toxicity was observed, whereupon a modified Fibonacci dose escalation scheme was used. In each cohort the first patient was required to complete 1 cycle before subsequent patients were entered. Intra-patient dose-escalation was not allowed.

Data set [3] in a line: Plasma and urine pharmacokinetics after TP300 infusion (LC-MS/MS, non-compartmental). Format: in vivo, human. Particulars: for concentration at 1 h: human, in vivo, read-out: Plasma TP300 concentration 1 h after administration, mean. As to the method: Venous blood (3 mL) was taken into sodium heparin tubes containing 30 μL of 46% citric acid, centrifuged 1500g at 4°C for 10 min and 1 mol/L hydrochloric acid was added (1:10) to plasma from each subject at 10 time points during cycle 1 (pre dose, then 1, 1.25, 1.5, 2, 3, 5, 8, 24, 48 hours after the start of administration) and stored at −70°C. Samples were processed by extraction of protein using addition of organic solvent containing internal standards and assayed by LC-MS/MS with a robust, sensitive and validated method for the simultaneous determination of a novel topoisomerase 1 inhibitor CH0793076 (TP3076), the prodrug CH4556300 (TP300), and the active metabolite CH0793011 (TP3011). All plasma had been acidified during collection to avoid the pH-based degradation of TP300 and to shift the equilibria of TP3076 and TP3011 between the lactone and carboxylate forms towards the lactone forms. After the plasma proteins were precipitated with methanol:acetonitrile:HCl 1M (50:50:1, v:v:v) containing stable isotopic internal standards, the analytes were trapped on an Xterra MS C18 column (10×2.1 mm i.d., 5 μm) and separated on a Gemini C18 column (50×2.0 mm i.d., 5 μm) using column-switching liquid chromatography. Electrospray ionization in the positive-ion mode and multiple reaction monitoring were used to quantify the analytes with transitions m/z 587.2>441.2 for TP300, 459.1>415.2 for 3076, and 475.1>361.1 for 3011. The inter- and intra-day precisions were below 12%, and the accuracy was between −16% and 16% at the lower limit of quantitation (LLOQ) and between −11% and 14% at the other quality controls. The LLOQs of TP300, TP3076, and TP3011 were 0.8, 0.04, and 0.04 ng/mL, respectively.
Pharmacokinetic parameters derived from plasma concentration-time data of TP3076 or TP3011 by non-compartmental methods using WinNonlin (version 5.1; Pharsight Corp), included maximal plasma concentration (Cmax) and time of Cmax (Tmax), apparent plasma elimination half-life (t1/2), and the area under the curve (AUC). The urinary excretion ratio (fe) of TP3076 and TP3011 was calculated from the urinary concentration and volume up to 48 hours after administration, and the administration dose. The linearity of Cmax and AUC was determined with linear regression, analysis of variance and power model analysis. The sum of the AUCs of TP3076 and TP3011 was plotted against percentage (%) fall in nadir neutrophil count to explore the relationship between exposure and myelosuppression as a measure of anti-proliferative effect and a sigmoid Emax model fitted to the data: […]

Data set [4] has as its system neutrophil count. Put plainly: Exposure versus fall in nadir neutrophil count, sigmoid Emax model. Particulars: 1-nadir/pre-observation neutrophils in cycle 1 vs total AUC of TP3076 plus TP3011, sigmoid Emax fit. In kind it is in vivo, human. As to the method: Pharmacokinetic parameters derived from plasma concentration-time data of TP3076 or TP3011 by non-compartmental methods using WinNonlin (version 5.1; Pharsight Corp), included maximal plasma concentration (Cmax) and time of Cmax (Tmax), apparent plasma elimination half-life (t1/2), and the area under the curve (AUC). The urinary excretion ratio (fe) of TP3076 and TP3011 was calculated from the urinary concentration and volume up to 48 hours after administration, and the administration dose. The linearity of Cmax and AUC was determined with linear regression, analysis of variance and power model analysis. The sum of the AUCs of TP3076 and TP3011 was plotted against percentage (%) fall in nadir neutrophil count to explore the relationship between exposure and myelosuppression as a measure of anti-proliferative effect and a sigmoid Emax model fitted to the data:
where γ is the Hill equation constant and EAUC50 is the AUC associated with 50% of the maximal effect.

The test system of data set [5] is advanced solid tumors. Put plainly: Antitumour activity (RECIST) in Phase I patients. In kind it is in vivo, human. As to the method: The MTD was the dose level below that at which ≥ 2 out of 3–6 patients experienced a DLT. Radiologic assessment of disease was performed every 2 cycles. Patients could remain on treatment if there was evidence of clinical benefit but were withdrawn from the study upon clinical or radiologic progression, unacceptable toxicity or withdrawal of consent.

The subject of data set [6] is peripheral blood mononuclear cells (PBMCs). As to the kind of experiment: Single cell gel electrophoresis (comet) assay of DNA strand breaks. Format: in vivo, human. Particulars: 1 hour post first dose, across all doses. As to the method:
Analysis of the ability of TP300 to induce DNA strand breaks was performed on peripheral blood mononuclear cells (PBMCs), pre-dose, 1, 3 and 24 hours post cycle 1. A validated single cell gel electrophoresis (comet) assay was used to assess DNA single-strand breaks. An average of 50 PBMC cells/time-point were analysed and the tail moment (TM) calculated, as the product of the percentage of DNA in the comet tail and the distance between head and tail distributions; higher TM values reflect greater DNA strand breakage. Statistical analyses were not performed due to the limited number of subjects/samples per cohort.

Data set [7] deals with range of tumour types in vitro. Set-up: method as in PMID 19495753. As to conditions: cited from earlier work.

The source of these data is article PMC3517777, “Phase I study of TP300 in patients with advanced solid tumors with pharmacokinetic, pharmacogenetic and pharmacodynamic analyses” (BMC Cancer, 2012).

Each structure is given as a SMILES string. Read-outs that look alike come from different tables or passages of the source.

As to `CCCCCN1C=Nc2cccc3nc4c(c1c23)Cn1c-4cc2c(c1=O)COC(=O)[C@@]2(CC)OC(=O)CN(C)C(=O)CN` [TP300, glycine,glycyl-N-methyl-,(9S)-9-ethyl-9,10,13,15-tetrahydro-10,13-dioxo-1-pentyl-1H,12H-pyrano[3'',4'':6′,7′]indolizino[2′,1′:5,6]pyrido[4,3,2-de]quinazolin-9-yl ester, hydro-chloride], in data set [1], the “activity in tumours over-expressing BCRP” value was “appears active”. Further, in data set [2], the “dose tolerated without evidence of serious, irreversible or life-threatening toxicity” value is reported as 0.3 mg/kg. Further, the “measured plasma concentrations 1.5 h after dose” value in data set [3] (all doses, LLOQ of TP300 0.8 ng/mL) is “below the limit of the quantification”. The concentration at 1 h was 3.48 ng/mL in data set [3] (TP300 2 mg/m^2), 2.34 ng/mL in data set [3] (TP300 8 mg/m^2), 7.37 ng/mL in data set [3] (TP300 10 mg/m^2) and 18.4 ng/mL in data set [3] (TP300 12 mg/m^2). For the same compound, in data set [4], the “EAUC50 (AUC associated with 50% of the maximal effect)” value came out at 1.31. Also, the “γ (Hill equation constant)” value in data set [4] was 0.862. Moreover, the “patients with stable disease as best response” value in data set [5] (1 each at 4, 8 and 12 mg/m^2 and 3 at 10 mg/m^2) is “six”. In data set [5] (32 patients, 1-12 mg/m^2), the “objective response as determined by RECIST” value was “no complete or partial responses”. In addition, the “duration of stable disease” value in data set [5] (six patients with stable disease) was 1.5-5 months. In data set [6], the “increase of DNA strand breaks vs pre-treatment” value is on record as “approximately 2 fold”. The “mean tail moment (TM)” value in data set [6] (pre-treatment mean 0.69) is 1.65. For the same compound, in data set [7], the “activity across a range of tumour types in vitro” value was “activity at nanomolar concentrations”.
